This note sets out measurements from US20100273772A1, “Bisaryl Alkynylamides as Negative Allosteric Modulators of Metabotropic Glutamate Receptor 5 (MGLUR5)” (Wyeth LLC, priority 2009, published 2010).

One may read the Ki as a dissociation constant, usually derived from enzyme kinetics or from competition with a known ligand. For orientation: IC50 means the concentration that gives 50% inhibition.

One assay concerns the target T1, rat mGluR5 receptor (Rattus norvegicus, UniProt P31424).
T1 construct: expressed in transfected cells; host or cells: HEK-293
Briefly: [3H]-MPEP binding HEK-293 cell membranes expressing a rat mGluR5 receptor. Conditions: displacement of 4 nM [3H]-MPEP, HEK-293 cell membranes expressing rat mGluR5, 60 minute at room temperature; read-out: mGluR5 Ligand Binding DR Ki. Here is the method:
TITLE: [^3H]-MPEP binding HEK-293 cell membranes expressing a rat mGluR5 receptor. PURPOSE: To identify high affinity compounds at the rat mGluR5 receptor based on their ability to displace the mGluR5 negative allosteric modulator, MPEP.
mGluR5 expressing HEK-293 cells are scraped off the plate, transferred to centrifuge tubes, and washed twice by centrifugation (2000 rpm for 10 min., 4° C.) in buffer (50 mM Tris pH 7.5). The resulting pellets are aliquoted and placed at −80° C. On the day of assay, the cells are thawed on ice, and resuspended in buffer. The binding assay is performed in a 96 well microtiter plate in a total volume of 250 μL. Non-specific binding is determined in the presence of 10 μM MPEP. Binding reaction includes a final radioligand [^3H]-MPEP concentration of 4 nM and 12-25 ug membrane protein per well. Following a 60 minute incubation at room temperature, the reaction is terminated by the addition of ice cold buffer and rapid filtration through a GF/B filter presoaked for 30 minutes in 0.5% PEI. Compounds are initially tested in a single point assay to determine percent inhibition at 10 μM. Subsequently, Ki values are determined for compounds defined to be active.
% inhibition and Ki values generated by GraphPad Prism and Excel Fit. IC50 values are calculated using GraphPad by fitting to a 1 or 2 site-binding model. Ki values are calculated from the apparent IC50 values using the Cheng-Prussof equation:
(§1) where [L]=concentration of free radioligand and Kd=dissociation constant of radioligand for the receptor. TITLE: Identification of metabotropic glutamate receptor 5 antagonists using a stable, sensitive fluorescence-based screening system PURPOSE: The aim of the research presented here was to develop a robust functional assay to measure changes in intracellular calcium, with the goal of identifying potent mGluR5 antagonists.

The target in assay [1] is T2, metabotropic glutamate receptor 5 (Rattus norvegicus, UniProt P31424).
T2 construct: expressed in transfected cells; host or cells: HEK-293
Briefly: FLIPR Calcium 3 fluorescence-based functional assay of intracellular calcium, mGluR5 antagonist activity. In kind it is cell-based. Conditions: inhibition of glutamate (EC90, ~50 uM) stimulated calcium levels, mGluR5 HEK-293 cells; read-out: mGluR5 FLIPR MP Antagonist DR IC50.
Source text: as §1
The FLIPR Calcium 3 Assay Kit is designed to work with many cell types, both adherent and non-adherent. Optimal cell conditions for the FLIPR Calcium 3 Assay Kit require the creation of a confluent cell monolayer before placing the plates in FLIPR or FlexStation. In general, we start with 50,000 mGluR5 HEK-293 cells/well for a 96-well plate. For adherent cells, seeding cells overnight with a plating volume of 100 μL/well worked for 96-well plates.
Remove cell plates from the incubator. Remove the supernatant medium. Add 180 ul of Loading Buffer to each well (for 96-well plates). HBSS buffer component B) pipette 100 mL of 10× Hank's Balanced Salt Solution and 20 mL of 1M Hepes buffer
Incubate cell plates for 1 hour at 37° C. and then keep the plates at room temperature until used.
After incubation, transfer the plates directly to FLIPR and begin the calcium assay as described in the FLIPR system manual. For a signal test, a starting average count of ˜10,000 is recommended. Recommended experimental setup parameters are as follows. Faster addition speeds can lead to better mixing of compounds and lower signal variance across the plate.
Test or reference compound is added to the 96-well plate (manually). […] Relative Fluorescence Units (RFUs) are recorded over a given time period (stated above) depending on the platform system used.
For antagonists, results are expressed as % inhibition of glutamate stimulated Calcium levels. IC50 values were calculated by Prism GraphPad using a 4-parameter logistic equation. IC50 values are calculated using GraphPad by fitting to a 1 site-model.

SMILES strings stand for the structures.

T1 sequence (P31424 21-1203): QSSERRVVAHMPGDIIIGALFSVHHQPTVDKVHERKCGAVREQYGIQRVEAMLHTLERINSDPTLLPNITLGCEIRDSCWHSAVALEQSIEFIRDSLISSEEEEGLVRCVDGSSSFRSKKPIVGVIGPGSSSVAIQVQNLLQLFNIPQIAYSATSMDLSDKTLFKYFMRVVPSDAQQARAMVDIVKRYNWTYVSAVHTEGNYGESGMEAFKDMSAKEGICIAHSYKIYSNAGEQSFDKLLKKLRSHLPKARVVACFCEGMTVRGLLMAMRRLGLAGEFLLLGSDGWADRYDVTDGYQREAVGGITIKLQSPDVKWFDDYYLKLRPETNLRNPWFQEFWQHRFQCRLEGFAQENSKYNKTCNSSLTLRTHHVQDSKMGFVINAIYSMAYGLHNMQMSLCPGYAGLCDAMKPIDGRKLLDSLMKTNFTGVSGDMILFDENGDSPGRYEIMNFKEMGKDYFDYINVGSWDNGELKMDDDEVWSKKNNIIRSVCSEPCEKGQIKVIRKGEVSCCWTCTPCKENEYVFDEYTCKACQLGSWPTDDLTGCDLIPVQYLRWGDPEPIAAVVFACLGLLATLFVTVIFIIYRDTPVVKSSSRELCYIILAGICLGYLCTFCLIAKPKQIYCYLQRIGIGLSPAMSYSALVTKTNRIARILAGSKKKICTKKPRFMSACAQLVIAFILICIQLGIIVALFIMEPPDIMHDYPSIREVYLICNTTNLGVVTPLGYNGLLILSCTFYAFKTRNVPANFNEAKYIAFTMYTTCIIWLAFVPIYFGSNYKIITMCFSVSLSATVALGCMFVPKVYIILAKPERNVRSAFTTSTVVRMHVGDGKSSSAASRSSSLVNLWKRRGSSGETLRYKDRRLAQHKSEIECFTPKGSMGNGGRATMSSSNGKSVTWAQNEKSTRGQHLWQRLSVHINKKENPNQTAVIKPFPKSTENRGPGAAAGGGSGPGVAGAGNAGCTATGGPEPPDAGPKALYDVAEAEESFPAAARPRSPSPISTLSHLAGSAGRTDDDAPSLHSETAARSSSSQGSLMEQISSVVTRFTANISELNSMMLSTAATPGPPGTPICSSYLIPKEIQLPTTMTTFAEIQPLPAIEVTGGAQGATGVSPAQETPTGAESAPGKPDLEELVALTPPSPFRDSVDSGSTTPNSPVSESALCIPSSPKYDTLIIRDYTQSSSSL
T2 sequence (P31424 21-1203): as above

Regarding `COc1ccc(C(=O)N2CCc3nc(C)sc3C2)cc1C#Cc1ccccn1` [Example 48, 5-{[4-methoxy-3-(pyridin-2-ylethynyl)phenyl]carbonyl}-2-methyl-4,5,6,7-tetrahydro[1,3]thiazolo[5,4-c]pyridine], at rat mGluR5 receptor, the Ki came to 23 nM. Further, the IC50 in assay [1] came out at 42 nM.
In the same order, the values of `COc1ccc(C(=O)N2CCc3cccnc3C2)cc1C#Cc1ccccn1` [Example 50, 7-{[4-methoxy-3-(pyridin-2-ylethynyl)phenyl]carbonyl}-5,6,7,8-tetrahydro-1,7-naphthyridine] are 17 nM and 17 nM.
As to `COc1ccc(C(=O)N2CCc3ncc(Cl)cc3C2)cc1C#Cc1ccccn1` [Example 51, 3-chloro-6-{[4-methoxy-3-(pyridin-2-ylethynyl)phenyl]carbonyl}-5,6,7,8-tetrahydro-1,6-naphthyridine], at rat mGluR5 receptor, the Ki amounted to 13 nM. Further, in assay [1], the IC50 stood at 30 nM.
For the molecule `COc1ccc(C(=O)N2CCc3ncc(C(F)(F)F)cc3C2)cc1C#Cc1ccccn1` [Example 52, 6-{[4-methoxy-3-(pyridin-2-ylethynyl)phenyl]carbonyl}-3-(trifluoromethyl)-5,6,7,8-tetrahydro-1,6-naphthyridine], the Ki on rat mGluR5 receptor is 29 nM. Further, in assay [1], the IC50 worked out at 49 nM.
As for `COc1ccc(C(=O)N2CCc3[nH]ncc3C2)cc1C#Cc1ccccn1` [Example 53, 5-{[4-methoxy-3-(pyridin-2-ylethynyl)phenyl]carbonyl}-4,5,6,7-tetrahydro-1H-pyrazolo[4,3-c]pyridine], at rat mGluR5 receptor, the Ki stood at 27 nM. The IC50 in assay [1] was determined as 4 nM.
Turning to `COc1ccc(C(=O)N2Cc3cccnc3C2)cc1C#Cc1ccccn1` [Example 54, 6-{[4-methoxy-3-(pyridin-2-ylethynyl)phenyl]carbonyl}-6,7-dihydro-5H-pyrrolo[3,4-b]pyridine], the Ki on rat mGluR5 receptor was found to be 26 nM. In addition, in assay [1], the IC50 was 8 nM.
Turning to `COc1ccc(C(=O)N2CCOc3ccccc3C2)cc1C#Cc1ccccn1` [Example 55, 4-{[4-methoxy-3-(pyridin-2-ylethynyl)phenyl]carbonyl}-2,3,4,5-tetrahydro-1,4-benzoxazepine], the Ki on rat mGluR5 receptor is 29 nM. For the same molecule, the 50% inhibitory concentration (IC50) in assay [1] stood at 12 nM.
`COc1ccc(C(=O)N2CCc3ccccc3CC2)cc1C#Cc1ccccn1` [Example 57, 3-{[4-methoxy-3-(pyridin-2-ylethynyl)phenyl]carbonyl}-2,3,4,5-tetrahydro-1H-3-benzazepine]: the Ki on rat mGluR5 receptor was 15 nM. Further, the IC50 in assay [1] was found to be 17 nM.
Regarding `COc1ccc(C(=O)N2CCc3[nH]cnc3C2)cc1C#Cc1ccccn1` [Example 58, 5-{[4-methoxy-3-(pyridin-2-ylethynyl)phenyl]carbonyl}-4,5,6,7-tetrahydro-1H-imidazo[4,5-c]pyridine], the Ki on rat mGluR5 receptor worked out at 57 nM. Besides, the IC50 in assay [1] is 18 nM.
In the same order, the values of `COc1ccc(C(=O)N2CCCc3ccccc3C2)cc1C#Cc1ccccn1` [Example 59, 2-{[4-methoxy-3-(pyridin-2-ylethynyl)phenyl]carbonyl}-2,3,4,5-tetrahydro-1H-2-benzazepine] are 42 nM and 29 nM.
`O=C(c1ccc(Cl)c(C#Cc2ccccn2)c1)N1Cc2ccccc2C1` [Example 60, 2-[4-Chloro-3-(pyridin-2-ylethynyl)benzoyl]isoindoline]: the Ki at rat mGluR5 receptor is 1 nM. Also, in assay [1], the IC50 is 6 nM.
In the case of `O=C(c1ccc(Cl)c(C#Cc2ccccn2)c1)N1CCc2ccccc2C1` [Example 61, 2-[4-Chloro-3-(pyridin-2-ylethynyl)benzoyl]-1,2,3,4-tetrahydroisoquinoline], the Ki on rat mGluR5 receptor stood at 0.4 nM. In assay [1], the IC50 amounted to 13 nM.
Regarding `O=C(c1ccc(Cl)c(C#Cc2ccccn2)c1)N1CCc2cccnc2C1` [Example 62, 7-{[4-chloro-3-(pyridin-2-ylethynyl)phenyl]carbonyl}-5,6,7,8-tetrahydro-1,7-naphthyridine], the Ki on rat mGluR5 receptor is 5 nM. Moreover, in assay [1], the IC50 came to 9 nM.
On to `O=C(c1ccc(Cl)c(C#Cc2ccccn2)c1)N1CCc2c(F)ccc(F)c2C1` [Example 63, 2-{[4-chloro-3-(pyridin-2-ylethynyl)phenyl]carbonyl}-5,8-difluoro-1,2,3,4-tetrahydroisoquinoline], for which the Ki on rat mGluR5 receptor amounted to 0.2 nM. For the same molecule, the IC50 in assay [1] is 14 nM.
Turning to `O=C(c1ccc(Cl)c(C#Cc2ccccn2)c1)N1CCc2c(F)cccc2C1` [Example 64, 2-{[4-chloro-3-(pyridin-2-ylethynyl)phenyl]carbonyl}-5-fluoro-1,2,3,4-tetrahydroisoquinoline], the Ki on rat mGluR5 receptor was found to be 0.4 nM. In assay [1], the concentration for half-maximal inhibition (IC50) is 16 nM.
Turning to `O=C(c1ccc(Cl)c(C#Cc2ccccn2)c1)N1Cc2cccnc2C1` [Example 65, 6-{[4-chloro-3-(pyridin-2-ylethynyl)phenyl]carbonyl}-6,7-dihydro-5H-pyrrolo[3,4-b]pyridine], on rat mGluR5 receptor, the Ki was determined as 3 nM. Further, the IC50 in assay [1] stood at 18 nM.
With `O=C(c1ccc(Cl)c(C#Cc2ccccn2)c1)N1CCc2[nH]ncc2C1` [Example 66, 5-{[4-chloro-3-(pyridin-2-ylethynyl)phenyl]carbonyl}-4,5,6,7-tetrahydro-1H-pyrazolo[4,3-c]pyridine], the Ki at rat mGluR5 receptor was found to be 4 nM. In assay [1], the IC50 was found to be 11 nM.
For `O=C(c1ccc(Cl)c(C#Cc2ccccn2)c1)N1CCc2[nH]cnc2C1` [Example 67, 5-{[4-chloro-3-(pyridin-2-ylethynyl)phenyl]carbonyl}-4,5,6,7-tetrahydro-1H-imidazo[4,5-c]pyridine], the Ki at rat mGluR5 receptor was found to be 16 nM. Besides, the IC50 in assay [1] worked out at 27 nM.
Take `O=C(c1ccc(Cl)c(C#Cc2ccccn2)c1)N1CCc2ncccc2C1` [Example 68, 6-{[4-chloro-3-(pyridin-2-ylethynyl)phenyl]carbonyl}-5,6,7,8-tetrahydro-1,6-naphthyridine]: the Ki at rat mGluR5 receptor was 4 nM. In addition, the IC50 in assay [1] is 26 nM.
In the same order, the values of `O=C(c1ccc(Cl)c(C#Cc2ccccn2)c1)N1CCc2c(Cl)cccc2C1` [Example 69, 5-chloro-2-{[4-chloro-3-(pyridin-2-ylethynyl)phenyl]carbonyl}-1,2,3,4-tetrahydroisoquinoline] are 0.1 nM and 134 nM.
As for `O=C(c1ccc(Cl)c(C#Cc2ccccn2)c1)N1CCc2ccc(F)cc2C1` [Example 70, 2-{[4-chloro-3-(pyridin-2-ylethynyl)phenyl]carbonyl}-7-fluoro-1,2,3,4-tetrahydroisoquinoline], on rat mGluR5 receptor, the Ki worked out at 0.4 nM. The IC50 in assay [1] came out at 37 nM.
As for `O=C(c1ccc(F)c(C#Cc2ccccn2)c1)N1CCc2ccccc2C1` [Example 71, 2-[4-Fluoro-3-(pyridin-2-ylethynyl)benzoyl]-1,2,3,4-tetrahydroisoquinoline], at rat mGluR5 receptor, the Ki worked out at 5 nM. Further, the IC50 in assay [1] came out at 67 nM.
Turning to `O=C(c1ccc(F)c(C#Cc2ccccn2)c1)N1CCc2ccc(Cl)cc2C1` [Example 72, 7-chloro-2-[4-fluoro-3-(pyridin-2-ylethynyl)benzoyl]-1,2,3,4-tetrahydroisoquinoline], the Ki at rat mGluR5 receptor was 2 nM. Moreover, in assay [1], the IC50 is 29 nM.
Consider `O=C(c1ccc(F)c(C#Cc2ccccn2)c1)N1CCc2c(Cl)cccc2C1` [Example 73, 5-chloro-2-[4-fluoro-3-(pyridin-2-ylethynyl)benzoyl]-1,2,3,4-tetrahydroisoquinoline], for which, at rat mGluR5 receptor, the Ki was 1 nM. For the same molecule, the IC50 in assay [1] stood at 40 nM.
For `O=C(c1ccc(F)c(C#Cc2ccccn2)c1)N1Cc2ccccc2C1` [Example 74, 2-[4-fluoro-3-(pyridin-2-ylethynyl)benzoyl]isoindoline], the Ki on rat mGluR5 receptor was 11 nM. Further, the IC50 in assay [1] came to 62 nM.
